Experimental data published in patent US20250041298A1, “CDK4 INHIBITOR FOR THE TREATMENT OF CANCER” (Pfizer Inc., priority 2021, published 2025).
Values joined by “and” are separate entries in the source; they are usually repeats but may differ in a detail not shown here. Equal values may be shown once.

How the values were obtained:
[1] = test system: HR+, HER2- T47D breast cancer spheroids; test: Multicellular tumor spheroid growth inhibition (SGI), T47D; type: cell-based, human
Experimental: (§1) The purpose of this example was to evaluate the combination effect of PF-07220060 and endocrine therapy in multicellular tumor spheroid growth inhibition (SGI). To model the characteristics and cellular behavior of human tumors, the activity of PF-07220060 was evaluated in three dimensional MCTS models of HR+ breast cancer and AR+ prostate cancer following PF-07220060 treatment as a single agent and in combination with fulvestrant • 1) in HR+, HER2-T47D breast cancer spheroids. • 2) in HR+, HER2+BT474 breast cancer spheroids, • 3) in BT474 spheroids, and • 4) in AR+ prostate carcinoma cell line (LNCaP) prostate cancer spheroids. Spheroids were treated with increasing concentrations of 100, 300, or 1000 nM PF-07220060 and compared to palbociclib at the clinically relevant concentration of 30 nM. Single agent PF-07220060 inhibited spheroid growth in a dose-dependent manner, with highest efficacy (86% SGI over the duration of treatment with 1000 nM) shown in the T47D BC spheroid model (Table 1). Combining 100 nM PF-07220060 with 1 nM fulvestrant in T47D cells increased SGI to 96% compared to either single agent alone (57 to 67% SGI with 100 nM PF-07220060 or 79% SGI with fulvestrant) (Table 1). BT474 spheroids were relatively less sensitive to PF-07220060 resulting in 52% SGI at 1000 nM.

[2] = Phase 1/1b clinical trial: safety (DLTs, treatment-emergent adverse events); type: in vivo, human
Experimental: As used herein, “dose limiting toxicity” (DLT) refers to the dosage of PF-07220060 that is contraindicative of a further increase in dosage.
An ongoing open-label, nonrandomized, dose-finding Phase 1/1b Study investigating the safety, tolerability, PK, and PD of PF-07220060 administered as a single agent and when administered in combination with endocrine therapy.
Adverse events of the patients dosed with PF-07220060 in the Phase 1/1b clinical trial were evaluated using the National Cancer Institute Common Terminology Criteria for Adverse Events (NCI CTCAE) version 4.03.

[3] = test system: AR+ prostate carcinoma cell line (LNCaP) prostate cancer spheroids; test: Multicellular tumor spheroid growth inhibition (SGI), LNCaP; type: cell-based, human
Experimental: The purpose of this example was to evaluate the combination effect of PF-07220060 and endocrine therapy in multicellular tumor spheroid growth inhibition (SGI). To model the characteristics and cellular behavior of human tumors, the activity of PF-07220060 was evaluated in three dimensional MCTS models of HR+ breast cancer and AR+ prostate cancer following PF-07220060 treatment as a single agent and in combination with fulvestrant • 1) in HR+, HER2-T47D breast cancer spheroids. • 2) in HR+, HER2+BT474 breast cancer spheroids, • 3) in BT474 spheroids, and • 4) in AR+ prostate carcinoma cell line (LNCaP) prostate cancer spheroids. Spheroids were treated with increasing concentrations of 100, 300, or 1000 nM PF-07220060 and compared to palbociclib at the clinically relevant concentration of 30 nM.

[4] = test system: HR+, HER2+ BT474 breast cancer spheroids; test: Multicellular tumor spheroid growth inhibition (SGI), BT474; type: cell-based, human
Experimental: as §1

[5] = 66 participants dosed in Part 1A, 1B, 1C and 1D
[6] = Part 1D, single agent 400 mg BID food cohort
[7] = Part 1D, single agent 400 mg BID food cohort, 6 participants
[8] = across all dose levels, by label
[9] = across all dose levels, Part 1A
[10] = any grade, all dose levels, Part 1A, 1B, 1C, by label
[11] = any grade, all dose levels, Part 1A, 1C, by label
[12] = overall, 66 participants dosed in Part 1

CC(C)n1c(C(C)(C)O)nc2c(F)cc(-c3nc(N[C@@H]4CCOC[C@H]4O)ncc3Cl)cc21 [PF-07220060, 1,5-anhydro-3-({5-chloro-4-[4-fluoro-2-(2-hydroxypropan-2-yl)-1-(propan-2-yl)-1H-benzimidazol-6-yl]pyrimidin-2-yl}amino)-2,3-dideoxy-D-threo-pentitol]
SGI ([1]; 100 nM single agent): 57% and 67% | SGI ([1]; 300 nM single agent): 74% | SGI ([1]; 1000 nM single agent): 86% | participants with any treatment-related TEAE, % ([2]; 66 participants dosed in Part 1): 81.8% | number of all-causality TEAEs [2, 5]: 375 | participants with all-causality TEAEs, % [2, 5]: 89.4% | diarrhoea, Grade 3 treatment-related TEAE ([2]; Part 1A): 5.9% | thrombocytopenia, Grade 3 treatment-related TEAE ([2]; Part 1A): 5.9% | participants with treatment-related TEAE, % ([2]; Part 1A (single agent, 34), 1B (13), 1C (13), by label): 79.4% | participants with Grade 5 all-causality TEAE (respiratory failure; unrelated to study drug) ([2]; Part 1A, 400 mg BID group): One | Grade 4 / Grade 5 all-causality TEAEs ([2]; Part 1A, 1B, 1C, by label): No Grade 4 TEAEs were reported | Grade 4 / Grade 5 treatment-related TEAEs ([2]; Part 1A, 1B, 1C, by label): no Grade 4 or Grade 5 treatment-related TEAEs reported | anaemia, Grade 3 treatment-related TEAE ([2]; Part 1A, 1B, 1C, by label): 5.9% | leukopenia, Grade 3 treatment-related TEAE ([2]; Part 1A, 1B, 1C, by label): 5.9% | neutropenia, Grade 3 treatment-related TEAE ([2]; Part 1A, 1B, 1C, by label): 14.7% | participants with Grade 3 treatment-related TEAEs, % ([2]; Part 1A, 1B, 1C, by label): 26.5% | Grade 3, 4 or 5 treatment-related TEAEs [2, 6]: No Grade 3, 4 nor 5 treatment-related TEAEs were reported | Grade 3 or 5 TEAEs [2, 6]: No Grade 3 or 5 TEAEs were reported | diarrhoea, all-causality TEAE [2, 6]: 50.0% | diarrhoea, treatment-related TEAE [2, 6]: 50.0% | leukopenia, all-causality TEAE [2, 6]: 50.0% | leukopenia, treatment-related TEAE [2, 6]: 50.0% | neutropenia, all-causality TEAE [2, 6]: 50.0% | neutropenia, treatment-related TEAE [2, 6]: 50.0% | participants with Grade 4 all-causality TEAE (respiratory failure) [2, 6]: One | participants with TEAEs, % [2, 7]: 66.7% | participants with treatment-related TEAEs, % [2, 7]: 66.7% | anaemia, Grade 3 or higher (1A) / Grade 3 (1B, 1C) all-causality TEAE [2, 8]: 5.9% | leukopenia, Grade 3 or higher (1A) / Grade 3 (1B, 1C) all-causality TEAE [2, 8]: 5.9% | neutropenia, Grade 3 or higher (1A) / Grade 3 (1B, 1C) all-causality TEAE [2, 8]: 14.7% | number of Grade 3 or higher (Part 1A) / Grade 3 (Part 1C) all-causality TEAEs [2, 8]: 15 | COVID-19, Grade 3 or higher all-causality TEAE [2, 9]: 5.9% | aspartate aminotransferase increased, Grade 3 or higher all-causality TEAE [2, 9]: 5.9% | diarrhoea, Grade 3 or higher all-causality TEAE [2, 9]: 5.9% | syncope, Grade 3 or higher all-causality TEAE [2, 9]: 5.9% | thrombocytopenia, Grade 3 or higher all-causality TEAE [2, 9]: 5.9% | participants with all-causality TEAEs, % ([2]; all dose levels, Part 1A (single agent, 34), 1B (13), 1C (13), by label): 94.1% | aspartate aminotransferase increased, all-causality TEAE ([2]; any grade, all dose levels, Part 1A): 20.6% | anaemia, all-causality TEAE [2, 10]: 35.3% | diarrhoea, all-causality TEAE [2, 10]: 35.3% | diarrhoea, treatment-related TEAE [2, 10]: 23.5% | fatigue, treatment-related TEAE [2, 10]: 11.8% | leukopenia, all-causality TEAE [2, 10]: 35.3% | nausea, all-causality TEAE [2, 10]: 29.4% | nausea, treatment-related TEAE [2, 10]: 26.5% | neutropenia, all-causality TEAE [2, 10]: 41.2% | neutropenia, treatment-related TEAE [2, 10]: 41.2% | vomiting, all-causality TEAE [2, 10]: 20.6% | anaemia, treatment-related TEAE [2, 11]: 29.4% | leukopenia, treatment-related TEAE [2, 11]: 29.4% | thrombocytopenia, treatment-related TEAE [2, 11]: 20.6% | vomiting, treatment-related TEAE [2, 11]: 14.7% | participants who experienced DLTs, % ([2]; of the 55 evaluable participants, all cohorts, as of Sep. 2, 2022): 7.3% | anemia, treatment-related TEAE [2, 12]: 21.2% | diarrhea, treatment-related TEAE [2, 12]: 33.3% | leukopenia, treatment-related TEAE [2, 12]: 30.3% | nausea, treatment-related TEAE [2, 12]: 27.3% | neutropenia, treatment-related TEAE [2, 12]: 40.9% | participants with DLT of Grade 3 neutropenia ([2]; single agent 200 mg BID cohort): One | participants with DLT of Grade 3 thrombocytopenia ([2]; single agent 500 mg BID cohort): Two | SGI ([3]; 100 nM single agent): 27% | SGI ([3]; 300 nM single agent): 38; 38% | SGI ([3]; 1000 nM single agent): 53% | SGI ([4]; 100 nM single agent): 9% | SGI ([4]; 300 nM single agent): 16% and 26% and 20% | SGI ([4]; 1000 nM single agent): 52%
